Experiment in all cases: NCI-60 cell line screen, 48 h
Experiment [1] has as its system NCI-H460 lung.
Experiment [2] deals with A498 renal.
Experiment [3] concerns MDA-MB-435.
Experiment [4] concerns U251 CNS.
Experiment [5] deals with UACC-257 melanoma.
Experiment [6] concerns TK-10 renal.
Experiment [7] concerns HCT-116 colon.
The test system of experiment [8] is SF-539 CNS.
In experiment [9] the test system is RXF 393 renal.
In experiment [10] the test system is HOP-62 NSCLC.

Molecules are shown by their SMILES.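 Compound exposure: 48 hours, 5 concentrations, 96-well plates. GI50 marks 50% less growth. TGI marks complete inhibition of growth.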

This note sets out measurements from PubChem BioAssay (NCI).

For the compound `CC1(C)CCCC(C)(C2CCC3(C)C2C(O)CC2C4(C)CCC(O)C(C)(C)C4C(O)CC23C)O1` (configuration not stated), the TGI in experiment [1] was found to be 25.3 µM; in [2], 28.1 µM; in experiment [3], 30.3 µM; in experiment [4] it was 34.4 µM; in experiment [5], 28.1 µM; in experiment [6], 25.4 µM. The TGI in [7] is greater than 100 µM; in experiment [8] it was 28.1 µM.

Take `COC(=O)c1ccc2c(c1)C(=O)c1c-2n(C)c(=O)c2cc(OC)c(OC)cc12`: the GI50 was greater than 50 µM in experiment [1]; greater than 50 µM in experiment [2]; greater than 50 µM in experiment [3]; 19.8 µM in experiment [4]; 0.123 µM in experiment [9]; 32.1 µM in experiment [6]. The values for the GI50 in experiment [7], in [10] and in experiment [8] were 40.1 µM, 17.7 µM and greater than 50 µM, respectively. Further, the TGI was greater than 50 µM in experiment [1]; greater than 50 µM in [2]; greater than 50 µM in [3]; greater than 50 µM in experiment [4]; 26.1 µM in experiment [9]; greater than 50 µM in experiment [6]. The TGI in experiment [7], in experiment [10] and in experiment [8] was greater than 50 µM throughout.

For the compound `O=C(NNc1ccc(F)cc1)C1CCC(CNS(=O)(=O)c2ccc(Cl)c(Cl)c2)CC1` (configuration not stated), the GI50 in [1] is 3.18 µM; in experiment [3], 2.01 µM; in [4] it was 10.3 µM; in experiment [5], 7.91 µM; in experiment [6] it was 1.74 µM; in [7], 6.51 µM. In addition, the figures for the GI50 in [10] and in experiment [8] were 15.9 µM and 9.77 µM, respectively. Further, the TGI in experiment [1] was greater than 50 µM; in experiment [3] it was 35.1 µM; in [4], greater than 50 µM; in experiment [5] it was 28.5 µM; in experiment [6], 16.4 µM; in [7], 33.9 µM. Moreover, the values for the TGI in experiment [10] and in experiment [8] were greater than 50 µM and 39.1 µM, respectively.

On to `CN(C)CCC=C1c2ccccc2C(C)(C)c2ccccc21`, for which the GI50 in experiment [1] was 9.23 µM; in experiment [2], 12.9 µM; in experiment [3] it was 4.56 µM; in [4], 12.2 µM; in experiment [5], 2.42 µM; in experiment [6], 18.4 µM. Moreover, the GI50 in [7] was 10.3 µM; in experiment [10] it was 17.4 µM; in experiment [8] it was 10.4 µM. Moreover, the TGI in experiment [1] is 21.3 µM; in experiment [2] it was 26 µM; in experiment [3], 19.5 µM; in experiment [4], 26.1 µM; in experiment [5] it was 6.34 µM; in [6] it was 37 µM. The TGI in experiment [7] is 22.4 µM; in experiment [10], 33.5 µM; in experiment [8] it was 22.2 µM.

As for `C1COCCOCCOCCOCCOCCO1.[Cl][Sn]([Cl])([c]1ccccc1)[c]1ccccc1`, the GI50 in experiment [1] was 15.1 µM; in experiment [2] it was 3.12 µM; in [4] it was 2.65 µM; in experiment [9] it was 2.21 µM; in [5], 2.08 µM; in experiment [6], 2.78 µM. In addition, the GI50 in experiment [7] is 5.53 µM; in experiment [10] it was 20.3 µM; in experiment [8] it was 2.94 µM. For the same compound, the TGI in experiment [1] was 30.5 µM; in [2], 11.9 µM; in [4] it was 6.81 µM; in experiment [9], 4.06 µM; in experiment [5], 4.63 µM; in experiment [6] it was 7.01 µM. In addition, the TGI turned out to be 17.3 µM in [7], 35 µM in [10] and 8.53 µM in [8].

In the case of `O=c1c2cccc(F)c2sc2c(N3CCNCC3)nc3ccccc3c12`, the GI50 in experiment [1] was 1.02 µM; in experiment [2] it was 1.92 µM; in [3], 1.74 µM; in experiment [4], 1.39 µM; in experiment [9], 1.31 µM; in [5], 1.93 µM. The GI50 in experiment [7] is 0.931 µM; in experiment [10], 1.38 µM; in experiment [8], 1.71 µM. The TGI came to 2.34 µM in [1]; 8.51 µM in [2]; 3.2 µM in experiment [3]; 2.96 µM in [4]; 2.62 µM in experiment [9]; 3.94 µM in experiment [5]. For the same compound, the results for the TGI in experiment [7], in experiment [10] and in experiment [8] were 2.16 µM, 3.1 µM and 3.11 µM, respectively.

For `NCCCn1c2c(c3ccc([N+](=O)[O-])cc3c1=O)C(=O)c1cc(-c3ccccc3)ccc1-2`, the GI50 in [1] was 0.34 µM; in [2], 0.694 µM; in experiment [3], 1.65 µM; in [4] it was 0.172 µM; in experiment [9], 1.36 µM; in experiment [5] it was 1.85 µM. In addition, the GI50 was 0.172 µM in experiment [7], 0.406 µM in [10] and 1.37 µM in experiment [8]. In addition, the TGI is 1.38 µM in [1]; 1.54 µM in experiment [2]; 3.11 µM in experiment [3]; 0.313 µM in experiment [4]; 2.79 µM in [9]; 3.46 µM in [5]. In addition, the TGI in [7] was 0.315 µM; in experiment [10], 1.46 µM; in [8] it was 2.84 µM.

Take `CCN(CC)CCOc1ccc(/C=C2\C[C@H]3[C@H]4CC=C5C[C@@H](O)CC[C@]5(C)[C@H]4CC[C@]3(C)[C@H]2O)cc1OC`: the GI50 was 13.1 µM in experiment [1]; 7.75 µM in experiment [3]; 9.53 µM in [4]; 13.4 µM in experiment [9]; 8.42 µM in experiment [5]; 5.49 µM in [6]. The GI50 is 14.6 µM in experiment [7], 8.89 µM in [10] and 1.43 µM in experiment [8]. The TGI was greater than 50 µM in experiment [1]; 16.5 µM in experiment [3]; 17.3 µM in experiment [4]; 39.3 µM in experiment [9]; 18.1 µM in experiment [5]; 11.5 µM in experiment [6]. The TGI in experiment [7] was greater than 50 µM; in [10], 22.8 µM; in [8], 9.82 µM.
